The text below walks through data of ChEMBL document CHEMBL5046300, “Potent Bactericidal Antimycobacterials Targeting the Chaperone ClpC1 Based on the Depsipeptide Natural Products Ecumicin and Ohmyungsamycin A” (2022).

Broadly, the MIC is the least concentration at which growth counts as inhibited. Low readings indicate a more susceptible organism, high ones a less susceptible organism.

Each structure is given as a SMILES string. Converted amounts (≈) assume the structure as drawn. The source made the active and inactive calls. The rule behind the calls is not given here. Where a SMILES comes first, the peptide text is derived from it. Bridges are numbered along the chain shown (N, C = ends). [ ]: non-standard residue; d: D form. NMeW = CN[C@@H](Cc1c[nH]c2ccccc12)C(=O)O; Hyp = O=C(O)[C@@H]1C[C@@H](O)CN1; NMeT = CN[C@H](C(=O)O)[C@@H](C)O; NMeL = CN[C@@H](CC(C)C)C(=O)O; NMeNle = CCCC[C@H](NC)C(=O)O; NMeDap = CN[C@@H](CN)C(=O)O; NMeNva = CCC[C@H](NC)C(=O)O; NMeV = CN[C@H](C(=O)O)C(C)C; Sar = CNCC(=O)O

The subject of test [1] is Mycobacterium tuberculosis. The test is described as follows: Antimycobacterial activity against Mycobacterium tuberculosis mc2 6230 measured after 7 days. In kind it is functional. The settings on record: mc2 6230, 168 h, time 7 day.
Test [2] has as its system Mycobacterium tuberculosis. Kind of test: Antimycobacterial activity against Mycobacterium tuberculosis mc2 6230 assessed as log reduction in bacteria measured up to 21 days by Time kill assay. In kind it is functional, organism-based. The settings on record: time day <=21.

With `CCCC[C@H]1C(=O)N(C)[C@@H](Cc2c[nH]c3ccccc23)C(=O)N[C@@H](C(C)C)C(=O)N[C@@H](Cc2ccccc2)C(=O)N[C@@H](C(C)C)C(=O)O[C@H](C)[C@H](NC(=O)[C@@H](NC(=O)[C@@H](NC)C(C)C)C(C)C)C(=O)N(C)[C@@H]([C@@H](C)O)C(=O)N[C@@H](C(C)C)C(=O)N(C)[C@@H](CC(C)C)C(=O)N[C@@H](C(C)C)C(=O)N1C` (H-[NMeV]VT[NMeT]V[NMeL]V[NMeNle][NMeW]VFV; ester 3-C), the minimal inhibitory concentration (MIC) in test [1] amounted to 0.5 µM (≈ 0.713 µg/mL). Still for that read-out and setting: then `CN[C@H](C(=O)N[C@H](C(=O)N[C@@H]1C(=O)N(C)[C@@H]([C@@H](C)O)C(=O)N[C@@H](C(C)C)C(=O)N(C)[C@@H](CC(C)C)C(=O)N[C@@H](C(C)C)C(=O)N2C[C@H](O)C[C@H]2C(=O)N(C)[C@@H](Cc2c[nH]c3ccccc23)C(=O)N[C@@H](C(C)C)C(=O)N[C@@H](Cc2ccccc2)C(=O)N[C@@H](C(C)C)C(=O)O[C@@H]1C)C(C)C)C(C)C` (H-[NMeV]VT[NMeT]V[NMeL]V[Hyp][NMeW]VFV; ester 3-C), with 8 µM (≈ 11.3 µg/mL); and `CN[C@H](C(=O)N[C@H](C(=O)N[C@@H]1C(=O)N(C)[C@@H]([C@@H](C)O)C(=O)N[C@@H](C(C)C)C(=O)N(C)[C@@H](CC(C)C)C(=O)N[C@@H](C(C)C)C(=O)N(C)[C@@H](Cc2c[nH]c3ccccc23)C(=O)N(C)[C@@H](Cc2c[nH]c3ccccc23)C(=O)N[C@@H](C(C)C)C(=O)N[C@@H](Cc2ccccc2)C(=O)N[C@@H](C(C)C)C(=O)O[C@@H]1C)C(C)C)C(C)C` (H-[NMeV]VT[NMeT]V[NMeL]V[NMeW][NMeW]VFV; ester 3-C), with 0.5 µM (≈ 0.75 µg/mL). `CN[C@H](C(=O)N[C@H](C(=O)N[C@@H]1C(=O)N(C)[C@@H]([C@@H](C)O)C(=O)N[C@@H](C(C)C)C(=O)N(C)[C@@H](CC(C)C)C(=O)N[C@@H](C(C)C)C(=O)N(C)[C@@H](C(C)C)C(=O)N(C)[C@@H](Cc2c[nH]c3ccccc23)C(=O)N[C@@H](C(C)C)C(=O)N[C@@H](Cc2ccccc2)C(=O)N[C@@H](C(C)C)C(=O)O[C@@H]1C)C(C)C)C(C)C` (H-[NMeV]VT[NMeT]V[NMeL]V[NMeV][NMeW]VFV; ester 3-C): the minimum inhibitory concentration (MIC) in test [1] came out at 0.25 µM (≈ 0.353 µg/mL). In addition, the result in test [2] was Active.

Regarding `CCC[C@H]1C(=O)N(C)[C@@H](Cc2c[nH]c3ccccc23)C(=O)N[C@@H](C(C)C)C(=O)N[C@@H](Cc2ccccc2)C(=O)N[C@@H](C(C)C)C(=O)O[C@H](C)[C@H](NC(=O)[C@@H](NC(=O)[C@@H](NC)C(C)C)C(C)C)C(=O)N(C)[C@@H]([C@@H](C)O)C(=O)N[C@@H](C(C)C)C(=O)N(C)[C@@H](CC(C)C)C(=O)N[C@@H](C(C)C)C(=O)N1C` (H-[NMeV]VT[NMeT]V[NMeL]V[NMeNva][NMeW]VFV; ester 3-C), in test [1], 0.5 µM (≈ 0.706 µg/mL) was the least that counted as inhibitory (MIC). Still for that read-out and setting: with `CN[C@H](C(=O)N[C@H](C(=O)N[C@@H]1C(=O)N(C)[C@@H]([C@@H](C)O)C(=O)N[C@@H](C(C)C)C(=O)N(C)[C@@H](CC(C)C)C(=O)N[C@@H](C(C)C)C(=O)N2CCC[C@H]2C(=O)N(C)[C@@H](Cc2c[nH]c3ccccc23)C(=O)N[C@@H](C(C)C)C(=O)N[C@@H](Cc2ccccc2)C(=O)N[C@@H](C(C)C)C(=O)O[C@@H]1C)C(C)C)C(C)C` (H-[NMeV]VT[NMeT]V[NMeL]VP[NMeW]VFV; ester 3-C) the figure was 8 µM (≈ 11.2 µg/mL); with `CN[C@H](C(=O)N[C@H](C(=O)N[C@@H]1C(=O)N(C)[C@@H]([C@@H](C)O)C(=O)N[C@@H](C(C)C)C(=O)N(C)[C@@H](CC(C)C)C(=O)N[C@@H](C(C)C)C(=O)N(C)CC(=O)N(C)[C@@H](Cc2c[nH]c3ccccc23)C(=O)N[C@@H](C(C)C)C(=O)N[C@@H](Cc2ccccc2)C(=O)N[C@@H](C(C)C)C(=O)O[C@@H]1C)C(C)C)C(C)C` (H-[NMeV]VT[NMeT]V[NMeL]V[Sar][NMeW]VFV; ester 3-C), 8 µM (≈ 11 µg/mL); with `CN[C@H](C(=O)N[C@H](C(=O)N[C@@H]1C(=O)N(C)[C@@H]([C@@H](C)O)C(=O)N[C@@H](C(C)C)C(=O)N(C)[C@@H](CC(C)C)C(=O)N[C@@H](C(C)C)C(=O)N(C)[C@@H](CN)C(=O)N(C)[C@@H](Cc2c[nH]c3ccccc23)C(=O)N[C@@H](C(C)C)C(=O)N[C@@H](Cc2ccccc2)C(=O)N[C@@H](C(C)C)C(=O)O[C@@H]1C)C(C)C)C(C)C` (H-[NMeV]VT[NMeT]V[NMeL]V[NMeDap][NMeW]VFV; ester 3-C), 2 µM (≈ 2.8 µg/mL).
